Experimental data published in patent US20050228016A1, “TETRAHYDROQUINOLINES FOR MODULATING THE EXPRESSION OF EXOGENOUS GENES VIA AN ECDYSONE RECEPTOR COMPLEX” (priority 2002, published 2005).

What was measured:
[1] = molecular target: T1, Bombyx mori EcR (VP16-BmEcR, CVBE) (Bombyx mori, UniProt P49881); test: Z3 assay (HEK-293 clone Z3 with CVBE and 6x EcRE LacZ, β-galactosidase reporter); assay type: cell-based; settings: 48 h, average of two wells
T1 construct: expressed in transfected cells
T1 sequence (P49881 86-606): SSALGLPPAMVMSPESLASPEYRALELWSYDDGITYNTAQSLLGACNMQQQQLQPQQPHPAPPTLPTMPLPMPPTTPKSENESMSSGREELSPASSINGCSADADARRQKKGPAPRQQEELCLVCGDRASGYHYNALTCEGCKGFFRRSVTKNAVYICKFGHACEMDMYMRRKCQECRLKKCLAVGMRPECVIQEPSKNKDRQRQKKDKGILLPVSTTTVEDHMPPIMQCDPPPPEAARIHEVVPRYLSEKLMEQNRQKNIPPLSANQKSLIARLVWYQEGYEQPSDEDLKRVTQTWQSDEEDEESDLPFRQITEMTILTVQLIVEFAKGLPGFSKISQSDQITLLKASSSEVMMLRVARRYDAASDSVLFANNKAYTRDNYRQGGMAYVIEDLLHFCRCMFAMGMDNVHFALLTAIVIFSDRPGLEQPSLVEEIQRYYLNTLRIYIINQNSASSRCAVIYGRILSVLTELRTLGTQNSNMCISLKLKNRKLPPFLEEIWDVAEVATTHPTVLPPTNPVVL

CfEcR + LmUSP = CfEcR + LmUSP in 3T3 cells, reporter assayed 48 h after ligand
Description: 1.9—Gal4CfEcR-DEF/VP16LmRXR-EF: This construct was prepared in the same way as switch 1.1 except LmRXR-EF (SEQ ID NO: 18) was used in place of HsRXRβ-LmRXREF chimera.
(§1) To determine if any of the compounds shown in Table 1 and Table 2 can act as inducers of reporter gene activity in a transactivation assay, these compounds were tested in NIH3T3 cells transfected with pFRLUC reporter and gene expression cassettes, 1.1 to 1.8 described in Example 1. […] At 48 hr after adding ligand, the cells were harvested and reporter activity was assayed using Dual Luciferase assay kit (Promega carporation). Total relative light units (RLU) are shown. Standard methods for culture and maintenance of the cells were followed.
(§2) Transfections: DNAs corresponding to the various switch constructs outlined in Example I, specifically switches 1.1 through 1.8, were transfected into mouse NIH3T3 cells (ATCC) as follows. Cells were harvested when they reached 50% confluency and plated in 6-, 12- or 24-well plates at 125,000, 50,000, or 25,000 cells, respectively, in 2.5, 1.0, or 0.5 ml of growth medium containing 10% fetal bovine serum (FBS), respectively. The next day, the cells were rinsed with growth medium and transfected for four hours. […] For 12-well plates, 4 μl of Superfect™ was mixed with 100 μl of growth medium. 1.0 μg of reporter construct and 0.25 μg of each receptor construct of the receptor pair to be analyzed were added to the transfection mix. A second reporter construct was added [pTKRL (Promega), 0.1 μg/transfection mix] that comprises a Renilla luciferase gene operably linked and placed under the control of a thymidine kinase (TK) constitutive promoter and was used for normalization. The contents of the transfection mix were mixed in a vortex mixer and let stand at room temperature for 30 min. At the end of incubation, the transfection mix was added to the cells maintained in 400 μl growth medium. The cells were maintained at 37° C. and 5% CO2 for four hours. At the end of incubation, 500 μl of growth medium containing 20% FBS and either dimethylsulfoxide (DMSO; control) or a DMSO solution of 0.1, 1, and 10 μM ligand was added and the cells were maintained at 37° C. and 5% CO2 for 48 hours. The cells were harvested and reporter activity was assayed. The same procedure was followed for 6 and 24 well plates as well except all the reagents were doubled for 6 well plates and reduced to half for 24-well plates.
(§3) Ligands: All ligands were dissolved in DMSO and the final concentration of DMSO was maintained at 0.1% in both controls and treatments.
(§4) Reporter Assays: Cells were harvested 48 hours after adding ligands. 125, 250, or 500 μl of passive lysis buffer (part of Dual-luciferase™ reporter assay system from Promega Corporation) were added to each well of 24- or 12- or 6-well plates respectively. The plates were placed on a rotary shaker for 15 minutes. Twenty μl of lysate were assayed. Luciferase activity was measured using Dual-luciferase™ reporter assay system from Promega Corporation following the manufacturer's instructions.

DmEcR + LmUSP = molecular target: T2, DmEcR + LmUSP (Drosophila melanogaster, UniProt P34021); settings: DmEcR + LmUSP in 3T3 cells, reporter assayed 48 h after ligand
T2 sequence (P34021 342-878): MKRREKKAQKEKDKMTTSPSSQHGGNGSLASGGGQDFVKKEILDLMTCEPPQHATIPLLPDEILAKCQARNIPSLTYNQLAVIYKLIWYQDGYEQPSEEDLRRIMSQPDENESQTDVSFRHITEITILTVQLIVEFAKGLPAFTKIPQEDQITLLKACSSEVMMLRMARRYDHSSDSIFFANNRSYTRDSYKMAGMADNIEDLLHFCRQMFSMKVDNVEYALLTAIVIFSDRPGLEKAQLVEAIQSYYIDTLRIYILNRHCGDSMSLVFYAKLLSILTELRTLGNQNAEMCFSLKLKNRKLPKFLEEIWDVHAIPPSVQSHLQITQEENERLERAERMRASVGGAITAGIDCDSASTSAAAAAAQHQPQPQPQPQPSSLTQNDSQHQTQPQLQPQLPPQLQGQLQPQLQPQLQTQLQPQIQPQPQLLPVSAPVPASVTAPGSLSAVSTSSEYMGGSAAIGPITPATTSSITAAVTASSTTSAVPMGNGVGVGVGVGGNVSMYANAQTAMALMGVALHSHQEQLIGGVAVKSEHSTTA
Description: as §1, §2, §3, §4

C[C@H]1C[C@H](Nc2ccc(F)cc2)c2cc(F)ccc2N1C(=O)c1ccc(F)c(C(F)(F)F)c1 (relative stereo) [Compound I-5]
Fold Induction Average, Z3V1 Assay 33 μM [1]: 96 fold
Fold Induction (10 μM) (CfEcR + LmUSP): 69 fold
Fold Induction (10 μM) (DmEcR + LmUSP; 10 μM): 8 fold
Fold Induction (100 μM) (DmEcR + LmUSP; 100 μM): 7 fold
